# In ChEMBL document CHEMBL2440076, “New triarylpyrazoles as broad-spectrum anticancer agents: design, synthesis, and biological evaluation” (Eur J Med Chem, 2013):
# Legend:
# Format in all cases: functional
# [1] = test system: MDA-MB-435; test: Growth inhibition of human MDA-MB-435 cells assessed as cell growth at 10 uM after 48 hrs by sulforhodamine B assay; conditions: MDA-MB-435, 48 h, read-out: Activity
# [2] = test system: DU-145; test: Growth inhibition of human DU145 cells assessed as cell growth at 10 uM after 48 hrs by sulforhodamine B assay; conditions: DU-145, 48 h, read-out: Activity
# [3] = test system: COLO 205; test: Growth inhibition of human COLO205 cells assessed as cell growth at 10 uM after 48 hrs by sulforhodamine B assay; conditions: COLO 205, 48 h, read-out: Activity
# [4] = test system: HT-29; test: Growth inhibition of human HT-29 cells assessed as cell growth at 10 uM after 48 hrs by sulforhodamine B assay; conditions: HT-29, 48 h, read-out: Activity
# [5] = Growth inhibition of human Hs 578T cells assessed as cell growth at 10 uM after 48 hrs by sulforhodamine B assay; conditions: read-out: Activity
# [6] = test system: UACC-257; test: Growth inhibition of human UACC257 cells assessed as cell growth at 10 uM after 48 hrs by sulforhodamine B assay; conditions: UACC-257, 48 h, read-out: Activity
# [7] = test system: K562; test: Growth inhibition of human K562 cells assessed as cell growth at 10 uM after 48 hrs by sulforhodamine B assay; conditions: K562, 48 h, read-out: Activity
# [8] = test system: MDA-MB-231; test: Growth inhibition of human MDA-MB-231 cells assessed as cell growth at 10 uM after 48 hrs by sulforhodamine B assay; conditions: MDA-MB-231, 48 h, read-out: Activity
# [9] = test system: BT-549; test: Growth inhibition of human BT549 cells assessed as cell growth at 10 uM after 48 hrs by sulforhodamine B assay; conditions: BT-549, 48 h, read-out: Activity
# [10] = test system: TK-10; test: Growth inhibition of human TK10 cells assessed as cell growth at 10 uM after 48 hrs by sulforhodamine B assay; conditions: TK-10, 48 h, read-out: Activity
# [11] = test system: MOLT-4; test: Growth inhibition of human MOLT4 cells assessed as cell growth at 10 uM after 48 hrs by sulforhodamine B assay; conditions: MOLT-4, 48 h, read-out: Activity
# [12] = test system: MDA-MB-468; test: Growth inhibition of human MDA-MB-468 cells assessed as cell growth at 10 uM after 48 hrs by sulforhodamine B assay; conditions: MDA-MB-468, 48 h, read-out: Activity
# [13] = test system: NCI-H226; test: Growth inhibition of human NCI-H226 cells assessed as cell growth at 10 uM after 48 hrs by sulforhodamine B assay; conditions: NCI-H226, 48 h, read-out: Activity
# [14] = test system: HCT-116; test: Growth inhibition of human HCT116 cells assessed as cell growth at 10 uM after 48 hrs by sulforhodamine B assay; conditions: HCT-116, 48 h, read-out: Activity
# [15] = test system: KM12; test: Growth inhibition of human KM12 cells assessed as cell growth at 10 uM after 48 hrs by sulforhodamine B assay; conditions: KM12, 48 h, read-out: Activity
# [16] = test system: NCI-H23; test: Growth inhibition of human NCI-H23 cells assessed as cell growth at 10 uM after 48 hrs by sulforhodamine B assay; conditions: NCI-H23, 48 h, read-out: Activity
# [17] = test system: 786-0; test: Growth inhibition of human 786-0 cells after 48 hrs by sulforhodamine B assay; conditions: 786-0, 48 h
# [18] = test system: IGROV-1; test: Growth inhibition of human IGROV1 cells after 48 hrs by sulforhodamine B assay; conditions: IGROV-1, 48 h
# [19] = test system: U-251; test: Growth inhibition of human U251 cells after 48 hrs by sulforhodamine B assay; conditions: U-251, 48 h
# [20] = test system: M14; test: Growth inhibition of human M14 cells after 48 hrs by sulforhodamine B assay; conditions: M14, 48 h
# [21] = test system: SR; test: Growth inhibition of human SR cells after 48 hrs by sulforhodamine B assay
# [22] = test system: SK-MEL-28; test: Growth inhibition of human SK-MEL-28 cells after 48 hrs by sulforhodamine B assay; conditions: SK-MEL-28, 48 h
# [23] = test system: MOLT-4; test: Growth inhibition of human MOLT4 cells after 48 hrs by sulforhodamine B assay; conditions: MOLT-4, 48 h
# [24] = test system: SK-MEL-2; test: Growth inhibition of human SK-MEL-2 cells after 48 hrs by sulforhodamine B assay; conditions: SK-MEL-2, 48 h
# [25] = test system: UACC-62; test: Growth inhibition of human UACC62 cells after 48 hrs by sulforhodamine B assay; conditions: UACC-62, 48 h
# [26] = test system: SK-OV-3; test: Growth inhibition of human SKOV3 cells after 48 hrs by sulforhodamine B assay; conditions: SK-OV-3, 48 h
# [27] = test system: NCI-H522; test: Growth inhibition of human NCI-H522 cells after 48 hrs by sulforhodamine B assay; conditions: NCI-H522, 48 h
# [28] = test system: SF-268; test: Growth inhibition of human SF268 cells after 48 hrs by sulforhodamine B assay; conditions: SF-268, 48 h
# [29] = test system: HL-60(TB); test: Growth inhibition of human HL-60(TB) cells after 48 hrs by sulforhodamine B assay; conditions: HL-60, 48 h
# [30] = test system: SN12C; test: Growth inhibition of human SN12C cells after 48 hrs by sulforhodamine B assay
# [31] = test system: HOP-62; test: Growth inhibition of human HOP62 cells after 48 hrs by sulforhodamine B assay; conditions: HOP-62, 48 h
# [32] = test system: ACHN; test: Growth inhibition of human ACHN cells after 48 hrs by sulforhodamine B assay
# [33] = test system: OVCAR-8; test: Growth inhibition of human OVCAR8 cells after 48 hrs by sulforhodamine B assay; conditions: OVCAR-8, 48 h
# [34] = read-out: LC50 (the source's name)
smiles,measurement,setting,value
O=C(Nc1cccc(-n2cc(-c3ccncc3)c(-c3ccc(Cl)c(O)c3)n2)c1)c1ccc(Cl)c(C(F)(F)F)c1,growth at 10 µM,[1],97.8%
same,growth at 10 µM,[2],95%
same,growth at 10 µM,[3],104%
same,growth at 10 µM,[4],105%
same,growth at 10 µM,[5],91.9%
same,growth at 10 µM,[6],104%
same,growth at 10 µM,[7],105%
same,growth at 10 µM,[8],73.5%
same,growth at 10 µM,[9],94.5%
same,growth at 10 µM,[10],119%
same,growth at 10 µM,[11],79.5%
same,growth at 10 µM,[12],98.2%
same,growth at 10 µM,[13],103%
same,growth at 10 µM,[14],100%
same,growth at 10 µM,[15],88.4%
same,growth at 10 µM,[16],105%
O=C(Nc1cccc(-n2cc(-c3ccncc3)c(-c3ccc(Cl)c(O)c3)n2)c1)Nc1ccc(Cl)c(Cl)c1,growth at 10 µM,[1],9.98%
same,growth at 10 µM,[2],25.9%
same,growth at 10 µM,[3],30.2%
same,GI50,[17],7.22 µM
same,TGI,[17],> 32.5 µM
same,CC50,[17]; [34],> 32.5 µM
same,growth at 10 µM,[4],45.9%
same,GI50,[18],1.77 µM
same,LC50 (concentration killing 50% of cells),[18],> 32.5 µM
same,TGI,[18],> 32.5 µM
same,GI50,[19],1.51 µM
same,LC50 (concentration killing 50% of cells),[19],> 32.5 µM
same,TGI,[19],9.68 µM
same,GI50,[20],1.18 µM
same,LC50 (concentration killing 50% of cells),[20],> 32.5 µM
same,TGI,[20],6.97 µM
same,growth at 10 µM,[5],36.1%
same,GI50,[21],1.14 µM
same,TGI,[21],15 µM
same,CC50,[21]; [34],> 32.5 µM
same,growth at 10 µM,[6],-17.3%
same,GI50,[22],1.46 µM
same,LC50,[22],> 32.5 µM
same,TGI,[22],9.85 µM
same,GI50,[23],1.38 µM
same,TGI,[23],> 32.5 µM
same,CC50,[23]; [34],> 32.5 µM
same,GI50,[24],1.03 µM
same,LC50 (50% lethal concentration),[24],> 32.5 µM
same,TGI,[24],2.64 µM
same,GI50,[25],1.11 µM
same,LC50 (50% lethal concentration),[25],29.2 µM
same,TGI,[25],5.21 µM
same,GI50,[26],1.2 µM
same,TGI,[26],> 32.5 µM
same,CC50,[26]; [34],> 32.5 µM
same,growth at 10 µM,[7],11.4%
same,growth at 10 µM,[8],-0.72%
same,growth at 10 µM,[9],34.4%
same,growth at 10 µM,[10],7.15%
same,GI50,[27],1.19 µM
same,LC50 (concentration killing 50% of cells),[27],> 32.5 µM
same,TGI,[27],10.6 µM
same,GI50,[28],1.49 µM
same,TGI,[28],10.9 µM
same,CC50,[28]; [34],> 32.5 µM
same,GI50,[29],0.515 µM
same,TGI,[29],> 32.5 µM
same,CC50,[29]; [34],> 32.5 µM
same,GI50,[30],1.31 µM
same,TGI,[30],> 32.5 µM
same,CC50,[30]; [34],> 32.5 µM
same,GI50,[31],2.08 µM
same,TGI,[31],17.6 µM
same,CC50,[31]; [34],> 32.5 µM
same,GI50,[32],1.04 µM
same,TGI,[32],> 32.5 µM
same,CC50,[32]; [34],> 32.5 µM
same,growth at 10 µM,[11],7.64%
same,growth at 10 µM,[12],2.25%
same,growth at 10 µM,[13],24.7%
same,growth at 10 µM,[14],11.1%
same,growth at 10 µM,[15],8.15%
same,growth at 10 µM,[16],13.5%
same,GI50,[33],1.21 µM
same,TGI,[33],> 32.5 µM
same,CC50,[33]; [34],> 32.5 µM
Cc1cc(C(=O)Nc2cccc(-n3cc(-c4ccncc4)c(-c4ccc(Cl)c(O)c4)n3)c2)ccc1Br,growth at 10 µM,[1],93.4%
same,growth at 10 µM,[2],103%
same,growth at 10 µM,[3],102%
same,growth at 10 µM,[4],107%
same,growth at 10 µM,[5],108%
same,growth at 10 µM,[6],95.9%
same,growth at 10 µM,[7],91.4%
same,growth at 10 µM,[8],70%
same,growth at 10 µM,[9],103%
same,growth at 10 µM,[10],113%
same,growth at 10 µM,[11],76.1%
same,growth at 10 µM,[12],93.2%
same,growth at 10 µM,[13],101%
same,growth at 10 µM,[14],94.4%
same,growth at 10 µM,[15],97.3%
same,growth at 10 µM,[16],97.9%
COc1cc(-c2nn(-c3cccc(NC(=O)c4ccc(Br)c(C)c4)c3)cc2-c2ccncc2)ccc1Cl,growth at 10 µM,[1],34.7%
same,growth at 10 µM,[2],102%
same,growth at 10 µM,[3],76.2%
same,growth at 10 µM,[4],66.6%
same,growth at 10 µM,[5],74.9%
same,growth at 10 µM,[6],79.5%
same,growth at 10 µM,[7],77.3%
same,growth at 10 µM,[8],67%
same,growth at 10 µM,[9],91.4%
same,growth at 10 µM,[10],91.3%
same,growth at 10 µM,[11],68.7%
same,growth at 10 µM,[12],83.5%
same,growth at 10 µM,[13],84.7%
same,growth at 10 µM,[14],70.3%
same,growth at 10 µM,[15],82.7%
same,growth at 10 µM,[16],86.9%
